# Experimental data: patent publication US20090203738A1, “Pharmaceutical Composition for Treating Bulimia and Depression Arising from Bulimia” (priority 2005, published 2009)
# Where a name gives a salt, the structure may show the parent alone. Read-outs that look alike come from different tables or passages of the source.
# How the values were obtained:
# [1] = tested on: patient with excessive eating and vomiting (bulimia) and depressive state; conditions: patient history: drug therapy and spiritual therapy at three neurological hospitals before the first examination; cited from earlier work
# [2] = tested on: patients suffering from light to medium Alzheimer's disease; conditions: 24-week, double-blind, placebo-controlled trial; cited from earlier work
# [3] = tested on: patient with excessive eating and vomiting (bulimia), insensitive to 60 mg of fluoxetine
# From the text: An excessive eating started when they were the third year class ([…]) of high school and it is still continuing. At the first medical examination, they were unable to go to university.
# [4] = tested on: bulimia; conditions: cited from earlier work
structure (smiles),measurement,setting,value
Fc1ccc([C@@H]2CCNC[C@H]2COc2ccc3c(c2)OCO3)cc1 [Paxil],improvement under earlier drug therapy,[1],no improvement was noted
Cc1nc2n(c(=O)c1CCN1CCC(c3noc4cc(F)ccc34)CC1)CCCC2 [Risperdal],improvement under earlier drug therapy,[1],no improvement was noted
O=C1CN=C(c2ccccc2Cl)c2cc([N+](=O)[O-])ccc2N1 [Rivotril],improvement under earlier drug therapy,[1],no improvement was noted
CN1C(=O)CN=C(c2ccccc2)c2cc(Cl)ccc21 [diazepam],improvement under earlier drug therapy,[1],no improvement was noted
"COc1cc2c(cc1OC)C(=O)C(CC1CCN(Cc3ccccc3)CC1)C2 (stereo not shown) [donepezil hydrochloride, 1-benzyl-4-[(5,6-dimethoxy-1-indanon)-2-yl]methylpiperidine]",cognitive ability and general function,[2],improves the cognitive ability and general function
CNCCC(Oc1ccc(C(F)(F)F)cc1)c1ccccc1 (stereo not shown) [fluoxetine],improvement in excessive eating,[3]; 20 mg of fluoxetine for two weeks,no improvement in excessive eating was noted
same,improvement in excessive eating,[3]; fluoxetine increased to 40 mg,no improvement was noted yet
same,amount and frequency of excessive eating,"[3]; fluoxetine increased up to 60 mg, for two weeks",no decrease in amount and frequency of excessive eating were noted
same,depression,"[3]; fluoxetine up to 60 mg, six weeks from the initiation of the therapy",No change in depression was noted
same,rate of improvement,"[4]; bulimia, 60 mg per day",about 60%
COCCCC/C(=N\OCCN)c1ccc(C(F)(F)F)cc1 [fluvoxamine],improvement under earlier drug therapy,[1],no improvement was noted
OC1(c2ccc(Cl)cc2)c2ccccc2C2=NCCN21 (stereo not shown) [mazindol],side effects,[4]; applied for bulimia,"excitation, frustration, load on cardiovascular system, dysuria and others"
CCCC(CCC)C(=O)[O-].[Na+] [sodium valproate],improvement under earlier drug therapy,[1],no improvement was noted
